In brackets after ≈: the same amount, converted by molar mass.
tested on: not listed separately; assay: Aqueous solubility at pH 6.5; type: physicochemical

| Structure (SMILES) | solubility |
| --- | --- |
| CCN(Cc1ccccc1)c1ncc(C(=O)NCCOc2ccccc2)c(-c2cc(OC)c(OC)c(OC)c2)n1 | < 0.001 mg/mL |
| COc1ccc(-c2nc(N[C@H](CO)Cc3ccccc3)ccc2C(=O)NCCOc2ccccc2)c(OC)n1 | 0.011 mg/mL (≈ 20.8 µM) |

tested on: not listed separately; assay: Aqueous solubility at pH 4.5; type: physicochemical

| Structure (SMILES) | solubility |
| --- | --- |
| CCN(Cc1ccccc1)c1ncc(C(=O)NCCOc2ccccc2)c(-c2cc(OC)c(OC)c(OC)c2)n1 | < 0.001 mg/mL |
| COc1ccc(-c2nc(N[C@H](CO)Cc3ccccc3)ccc2C(=O)NCCOc2ccccc2)c(OC)n1 | 0.036 mg/mL (≈ 68.1 µM) |

biological target: T1, Extracellular calcium-sensing receptor (Homo sapiens, UniProt P41180); assay: Antagonist activity at calcium-sensing receptor expressed in HEK293 cells by FLIPR assay; type: functional, cell-based
T1 sequence (P41180 whole entry): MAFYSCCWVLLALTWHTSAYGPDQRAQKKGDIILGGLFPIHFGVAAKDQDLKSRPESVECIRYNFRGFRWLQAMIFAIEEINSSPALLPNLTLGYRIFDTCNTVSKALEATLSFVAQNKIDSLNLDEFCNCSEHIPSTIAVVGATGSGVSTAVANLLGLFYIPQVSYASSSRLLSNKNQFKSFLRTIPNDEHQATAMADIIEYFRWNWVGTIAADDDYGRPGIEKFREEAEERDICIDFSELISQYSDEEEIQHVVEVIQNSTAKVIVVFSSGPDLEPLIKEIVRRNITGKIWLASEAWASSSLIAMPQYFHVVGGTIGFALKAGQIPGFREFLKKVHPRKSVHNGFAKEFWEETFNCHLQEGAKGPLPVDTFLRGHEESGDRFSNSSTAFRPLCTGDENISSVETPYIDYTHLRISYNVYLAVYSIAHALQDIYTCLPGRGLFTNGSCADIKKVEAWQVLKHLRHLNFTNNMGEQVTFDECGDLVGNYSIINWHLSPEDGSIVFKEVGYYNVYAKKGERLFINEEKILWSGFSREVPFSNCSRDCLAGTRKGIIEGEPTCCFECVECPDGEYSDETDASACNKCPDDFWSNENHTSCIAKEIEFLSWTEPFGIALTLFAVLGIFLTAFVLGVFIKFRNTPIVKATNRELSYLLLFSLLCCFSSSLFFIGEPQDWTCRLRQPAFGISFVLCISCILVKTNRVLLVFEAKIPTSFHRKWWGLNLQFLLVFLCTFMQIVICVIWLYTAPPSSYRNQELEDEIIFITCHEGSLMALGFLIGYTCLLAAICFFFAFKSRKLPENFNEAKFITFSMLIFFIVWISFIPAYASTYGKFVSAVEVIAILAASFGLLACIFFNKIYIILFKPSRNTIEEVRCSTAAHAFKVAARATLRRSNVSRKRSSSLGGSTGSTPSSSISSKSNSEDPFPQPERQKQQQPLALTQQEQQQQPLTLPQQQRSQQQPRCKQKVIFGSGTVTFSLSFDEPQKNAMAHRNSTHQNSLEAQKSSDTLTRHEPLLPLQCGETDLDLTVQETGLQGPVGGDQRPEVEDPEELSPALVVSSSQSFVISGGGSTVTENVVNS

| Structure (SMILES) | IC50 |
| --- | --- |
| COc1cc(-c2nc(NCc3ccc4c(c3)OCO4)ccc2C(=O)NCCOc2ccccc2)cc(OC)c1OC | 0.13 µM |
| COc1cc(-c2nc(NCc3ccccc3C)ncc2C(=O)NCCOc2ccccc2)cc(OC)c1OC | 10 µM |
| COc1cc(-c2nc(NCc3ccccc3Cl)ncc2C(=O)NCCOc2ccccc2)cc(OC)c1OC | 4.9 µM |
| COc1cc(-c2nc(NCc3ccccc3)ncc2C(=O)NCCOc2ccccc2)cc(OC)c1OC | 0.73 µM |
| COc1cc(-c2nc(NCCC(C)C)ncc2C(=O)NCCOc2ccccc2)cc(OC)c1OC | 2.2 µM |
| COc1ccc(-c2nc(NCc3ccc4c(c3)OCO4)ncc2C(=O)NC(C)Cc2ccc(Cl)cc2)c(OC)n1 (stereo not drawn) | 0.15 µM |
| CCN(Cc1ccccc1)c1ccc(C(=O)NCCOc2ccccc2)c(-c2cc(OC)c(OC)c(OC)c2)n1 | 0.154 µM |
| CCN(Cc1ccccc1)c1ccc(C(=O)NCCOc2ccccc2)c(-c2ccc(OC)nc2OC)n1 | 1.05 µM |
| COc1cc(-c2nc(N[C@H](CO)Cc3ccccc3)ccc2C(=O)NCCOc2ccccc2)cc(OC)c1OC | 0.076 µM |
| COc1ccc(-c2nc(NCc3ccc4c(c3)OCO4)ccc2C(=O)NCCOc2ccccc2)c(OC)n1 | 0.06 µM |
| COc1ccc(-c2nc(NCc3ccc4c(c3)OCO4)ncc2C(=O)N2CCc3ccccc3C2)c(OC)n1 | 0.36 µM |
| COc1ccc(-c2nc(NCc3ccc4c(c3)OCO4)ncc2C(=O)NCCOc2ccccc2)c(OC)n1 | 0.22 µM |
| COc1ccc(-c2nc(NCc3cccc(Cl)c3)ccc2C(=O)NCCOc2ccccc2)c(OC)n1 | 0.197 µM |
| COc1cc(OC)cc(-c2nc(N(C)Cc3ccccc3)ncc2C(=O)NCCOc2ccccc2)c1 | > 30 µM |
| CCN(Cc1ccccc1)c1ncc(C(=O)NCCOc2ccccc2)c(-c2ccc(OC)nc2OC)n1 | 0.36 µM |
| CCN(Cc1ccccc1)c1ncc(C(=O)NCCCc2ccccc2)c(-c2cc(OC)c(OC)c(OC)c2)n1 | 2.1 µM |
| CCN(Cc1ccccc1)c1ncc(C(=O)NCCc2ccccc2)c(-c2cc(OC)c(OC)c(OC)c2)n1 | > 30 µM |
| COc1cc(-c2nc(N[C@@H](CO)Cc3ccccc3)ncc2C(=O)NCCOc2ccccc2)cc(OC)c1OC | > 30 µM |
| CN(Cc1ccccc1)c1ncc(C(=O)NCCOc2ccccc2)c(-c2ccc(C(F)(F)F)cc2)n1 | 18.9 µM |
| COc1ccc(-c2nc(N(C)Cc3ccccc3)ncc2C(=O)NCCOc2ccccc2)cc1 | > 30 µM |
| COc1cccc(-c2nc(N(C)Cc3ccccc3)ncc2C(=O)NCCOc2ccccc2)c1 | > 30 µM |
| COc1ccccc1-c1nc(N(C)Cc2ccccc2)ncc1C(=O)NCCOc1ccccc1 | > 30 µM |

| Structure (SMILES) | IC50 |
| --- | --- |
| CCN(Cc1ccccc1)c1ncc(C(=O)NCCOc2ccccc2)c(C2CCCCC2)n1 | > 30 µM |
| CCN(Cc1ccccc1)c1ncc(C(=O)NCCOc2ccccc2)c(-c2ccccc2)n1 | > 30 µM |
| COc1ccc(-c2nc(N(C)Cc3ccccc3)ncc2C(=O)NCCOc2ccccc2)cc1OC | 6.9 µM |
| COc1cc(-c2nc(NCc3ccccn3)ncc2C(=O)NCCOc2ccccc2)cc(OC)c1OC | > 30 µM |
| COc1cccc(CNc2ncc(C(=O)NCCOc3ccccc3)c(-c3cc(OC)c(OC)c(OC)c3)n2)c1 | 0.34 µM |
| COc1cc(-c2nc(NCc3cccc(Cl)c3)ncc2C(=O)NCCOc2ccccc2)cc(OC)c1OC | 0.07 µM |
| COc1cc(-c2nc(NCCc3cccnc3)ncc2C(=O)NCCOc2ccccc2)cc(OC)c1OC | > 30 µM |
| COc1cc(-c2nc(NCCc3ccccn3)ncc2C(=O)NCCOc2ccccc2)cc(OC)c1OC | > 30 µM |
| COc1cccc(CCNc2ncc(C(=O)NCCOc3ccccc3)c(-c3cc(OC)c(OC)c(OC)c3)n2)c1 | 1 µM |
| COc1ccccc1CCNc1ncc(C(=O)NCCOc2ccccc2)c(-c2cc(OC)c(OC)c(OC)c2)n1 | 0.34 µM |
| COc1cc(-c2nc(N(C)CCc3ccccc3)ncc2C(=O)NCCOc2ccccc2)cc(OC)c1OC | 1.5 µM |
| COc1cc(-c2nc(NCCc3ccccc3)ncc2C(=O)NCCOc2ccccc2)cc(OC)c1OC | 0.4 µM |
| COc1cc(-c2nc(N[C@H](CO)Cc3ccccc3)ncc2C(=O)NCCOc2ccccc2)cc(OC)c1OC | 0.15 µM |
| CCN(Cc1ccccc1)c1ncc(C(=O)NCCOc2ccccc2)c(-c2cc(OC)c(OC)c(OC)c2)n1 | 0.2 µM |
| COc1cc(-c2nc(NCc3ccc4c(c3)OCO4)ncc2C(=O)NCCOc2ccccc2)cc(OC)c1OC | 0.15 µM |
| COc1cc(-c2nc(N(C)Cc3ccccc3)ncc2C(=O)NCCOc2ccccc2)cc(OC)c1OC | 0.47 µM |
| CCN(Cc1ccccc1)c1ncc(C(=O)NCCCCc2ccccc2)c(-c2cc(OC)c(OC)c(OC)c2)n1 | 1.8 µM |
| COc1cc(-c2nc(NCc3cccc(Cl)c3)ccc2C(=O)NCCOc2ccccc2)cc(OC)c1OC | 0.162 µM |
| COc1ccc(-c2nc(N[C@H](CO)Cc3ccccc3)ccc2C(=O)NCCOc2ccccc2)c(OC)n1 | 0.14 µM |
| COc1cc(-c2nc(NCc3cccnc3)ncc2C(=O)NCCOc2ccccc2)cc(OC)c1OC | > 30 µM |
| COc1ccc(CNc2ncc(C(=O)NCCOc3ccccc3)c(-c3cc(OC)c(OC)c(OC)c3)n2)cc1 | 3.1 µM |
| COc1ccc(CCNc2ncc(C(=O)NCCOc3ccccc3)c(-c3cc(OC)c(OC)c(OC)c3)n2)cc1 | 2.8 µM |
